This is an account of results in US6437153B1, “Process for preparing 3-(1-hydroxyphenyl-1-alkoximinomethyl)dioxazines” (Bayer Aktiengesellschaft, priority 1996, dated 2002).

The data set in a line: logP determined by HPLC. In kind it is physicochemical.
Where [1] appears, read: preparation examples, where two values are given they are the stereoisomers of the product mixture, read-out: HPLC: logP.
[2] abbreviates: preparation examples, where two values are given they are the stereoisomers of the product mixture.

Like-named read-outs stand apart in the source and are kept apart here.

Consider `CON=C1COc2ccc(C)cc21` [(VI-2), 5-Methylbenzofuran-3-one O-methyl-oxime], for which the chromatographic logP under setting [1] turned out to be 2.88. Turning to `CON=C1C(=NO)Oc2ccccc21` [Compound (III-1), benzofuran-2,3-dione 3-(O-methyl-oxime) 2-oxime], under setting [2], the “HPLC: logP” value is reported as 1.72. Besides, the chromatographic logP under setting [1] was found to be 1.56. Regarding `CON=C(C[N+](=O)[O-])c1ccccc1O` [Compound (V-1), 1-(2-hydroxyphenyl)-2-nitro-ethanone O-methyl-oxime], the chromatographic logP under setting [1] turned out to be 1.87. Take `CON=C1C(=NOCCO)Oc2ccccc21` [Compound (II-1), benzofuran-2,3-dione 2-[O-(2-hydroxy-ethyl)-oxime]3-(O-methyl-oxime)]: the “HPLC: logP” value under setting [2] amounted to 1.79. Also, under setting [1], the chromatographic logP was 1.65. Take `CO/N=C(/C1=NOCCO1)c1ccccc1O` [Compound (I-1), E-(5,6-dihydro-[1,4,2]dioxazin-3-yl)-(2-hydroxy-phenyl)-methanone O-methyl-oxime]: the chromatographic logP (E isomer, Example 2 product, read-out: HPLC: logP (E isomer)) worked out at 1.24 and the chromatographic logP (HPLC, preparation examples, where two values are given they are the stereoisomers of the product mixture, read-out: HPLC: logP) stood at 1.22.
